Mutagenic call data for four compounds are collected here from PubChem BioAssay AID1259407 (Chemical Carcinogenesis Research Information System (CCRIS), 2018).

For the data set, the system named is CCRIS mutagenicity, Ames/micronucleus/aberration tests. Nature of the data set: CCRIS mutagenicity studies.
Where [1] appears, read: Test System: AMES SALMONELLA TYPHIMURIUM, Strain/Indicator: TA97, Metabolic Activation: NONE, Method: PREINCUBATION
[2] abbreviates: Test System: AMES SALMONELLA TYPHIMURIUM, Strain/Indicator: TA100, Metabolic Activation: NONE, Method: PREINCUBATION
[3] abbreviates: Test System: AMES SALMONELLA TYPHIMURIUM, Strain/Indicator: TA98, Metabolic Activation: NONE, Method: STANDARD PLATE.
[4] abbreviates: Test System: AMES SALMONELLA TYPHIMURIUM, Strain/Indicator: TA100, Metabolic Activation: NONE, Method: STANDARD PLATE.

Activity calls are given as the source filed them. No rule for the calls is given here.

In the case of `CCCCCCCCCCCCCC(=O)O`, the mutagenic call (Test System: AMES SALMONELLA TYPHIMURIUM, Strain/Indicator: TA97, Metabolic Activation: HAMSTER, LIVER, S-9, AROCLOR 1254 (10 OR 30%), Method: PREINCUBATION) was “inactive; negative”; the mutagenic call under setting [1] is “inactive; negative”; the mutagenic call (Test System: AMES SALMONELLA TYPHIMURIUM, Strain/Indicator: TA97, Metabolic Activation: RAT, LIVER, S-9, AROCLOR 1254 (10%), Method: PREINCUBATION) is “inactive; negative”; the mutagenic call (Test System: AMES SALMONELLA TYPHIMURIUM, Strain/Indicator: TA97, Metabolic Activation: RAT, LIVER, S-9, AROCLOR 1254 (30%), Method: PREINCUBATION) is “inactive; negative”; the mutagenic call (Test System: AMES SALMONELLA TYPHIMURIUM, Strain/Indicator: TA98, Metabolic Activation: HAMSTER, LIVER, S-9, AROCLOR 1254 (10 OR 30%), Method: PREINCUBATION) is “inactive; negative”; the mutagenic call (Test System: AMES SALMONELLA TYPHIMURIUM, Strain/Indicator: TA98, Metabolic Activation: NONE, Method: PREINCUBATION) is “inactive; negative”. Further, the mutagenic call is, setting by setting: (Test System: AMES SALMONELLA TYPHIMURIUM, Strain/Indicator: TA98, Metabolic Activation: RAT LIVER S-9, PHENOBARBITAL AND BETA-NAPHTHOFLAVONE, Method: PREINCUBATION) “inactive; negative”; (Test System: AMES SALMONELLA TYPHIMURIUM, Strain/Indicator: TA98, Metabolic Activation: RAT, LIVER, S-9, AROCLOR 1254 (10 OR 30%), Method: PREINCUBATION) “inactive; negative”; (Test System: AMES SALMONELLA TYPHIMURIUM, Strain/Indicator: TA100, Metabolic Activation: HAMSTER, LIVER, S-9, AROCLOR 1254 (10%), Method: PREINCUBATION) “inactive; negative”; (Test System: AMES SALMONELLA TYPHIMURIUM, Strain/Indicator: TA100, Metabolic Activation: HAMSTER, LIVER, S-9, AROCLOR 1254 (30%), Method: PREINCUBATION) “inactive; negative”; under setting [2], “inactive; negative”; (Test System: AMES SALMONELLA TYPHIMURIUM, Strain/Indicator: TA100, Metabolic Activation: RAT LIVER S-9, PHENOBARBITAL AND BETA-NAPHTHOFLAVONE, Method: PREINCUBATION) “inactive; negative”. Further, the mutagenic call (Test System: AMES SALMONELLA TYPHIMURIUM, Strain/Indicator: TA100, Metabolic Activation: RAT, LIVER, S-9, AROCLOR 1254 (10%), Method: PREINCUBATION) is “inactive; negative”; the mutagenic call (Test System: AMES SALMONELLA TYPHIMURIUM, Strain/Indicator: TA100, Metabolic Activation: RAT, LIVER, S-9, AROCLOR 1254 (30%), Method: PREINCUBATION) is “inactive; negative”; the mutagenic call (Test System: AMES SALMONELLA TYPHIMURIUM, Strain/Indicator: TA1535, Metabolic Activation: HAMSTER, LIVER, S-9, AROCLOR 1254 (10 OR 30%), Method: PREINCUBATION) was “inactive; negative”; the mutagenic call (Test System: AMES SALMONELLA TYPHIMURIUM, Strain/Indicator: TA1535, Metabolic Activation: NONE, Method: PREINCUBATION) is “inactive; negative”; the mutagenic call (Test System: AMES SALMONELLA TYPHIMURIUM, Strain/Indicator: TA1535, Metabolic Activation: RAT, LIVER, S-9, AROCLOR 1254 (10 OR 30%), Method: PREINCUBATION) was “inactive; negative”; the mutagenic call (Test System: AMES SALMONELLA TYPHIMURIUM, Strain/Indicator: TA1537, Metabolic Activation: HAMSTER, LIVER, S-9, AROCLOR 1254 (10 OR 30%), Method: PREINCUBATION) is “inactive; negative”. For the same compound, the mutagenic call runs as follows: (Test System: AMES SALMONELLA TYPHIMURIUM, Strain/Indicator: TA1537, Metabolic Activation: NONE, Method: PREINCUBATION) “inactive; negative”; (Test System: AMES SALMONELLA TYPHIMURIUM, Strain/Indicator: TA1537, Metabolic Activation: RAT LIVER S-9, PHENOBARBITAL AND BETA-NAPHTHOFLAVONE, Method: PREINCUBATION) “inactive; negative”; (Test System: AMES SALMONELLA TYPHIMURIUM, Strain/Indicator: TA1537, Metabolic Activation: RAT, LIVER, S-9, AROCLOR 1254 (10 OR 30%), Method: PREINCUBATION) “inactive; negative”; (Test System: E.COLI, Strain/Indicator: WP2UVRA/PKM101, Metabolic Activation: NONE, Method: PREINCUBATION) “inactive; negative”; (Test System: E.COLI, Strain/Indicator: WP2UVRA/PKM101, Metabolic Activation: RAT LIVER S-9, PHENOBARBITAL AND BETA-NAPHTHOFLAVONE, Method: PREINCUBATION) “inactive; negative”.

In the case of `[O]=[Mg]`, the mutagenic call was “inactive; negative” under setting [1]; “inactive; negative” (Test System: AMES SALMONELLA TYPHIMURIUM, Strain/Indicator: TA97, Metabolic Activation: S-9, Method: PREINCUBATION); “inactive; negative” under setting [2]; “inactive; negative” (Test System: AMES SALMONELLA TYPHIMURIUM, Strain/Indicator: TA100, Metabolic Activation: RAT, LIVER, S-9, Method: PREINCUBATION); “inactive; negative” (Test System: AMES SALMONELLA TYPHIMURIUM, Strain/Indicator: TA102, Metabolic Activation: NONE, Method: PREINCUBATION); “inactive; negative” (Test System: AMES SALMONELLA TYPHIMURIUM, Strain/Indicator: TA102, Metabolic Activation: S-9, Method: PREINCUBATION).

`CCCN(C(=O)CCCl)c1snc2ccccc12`: the mutagenic call was “inactive; negative” under setting [3]; “inactive; negative” (Test System: AMES SALMONELLA TYPHIMURIUM, Strain/Indicator: TA98, Metabolic Activation: S-9, Method: STANDARD PLATE); “inactive; negative” under setting [4]; “inactive; negative” (Test System: AMES SALMONELLA TYPHIMURIUM, Strain/Indicator: TA100, Metabolic Activation: S-9, Method: STANDARD PLATE); “active; positive” (Test System: AMES SALMONELLA TYPHIMURIUM, Strain/Indicator: TA1535, Metabolic Activation: NONE, Method: STANDARD PLATE); “active; positive” (Test System: AMES SALMONELLA TYPHIMURIUM, Strain/Indicator: TA1535, Metabolic Activation: S-9, Method: STANDARD PLATE). In addition, the mutagenic call reads like this: (Test System: AMES SALMONELLA TYPHIMURIUM, Strain/Indicator: TA1537, Metabolic Activation: NONE, Method: STANDARD PLATE) “inactive; negative”; (Test System: AMES SALMONELLA TYPHIMURIUM, Strain/Indicator: TA1537, Metabolic Activation: S-9, Method: STANDARD PLATE) “inactive; negative”.

With `NC(=O)CCC(=O)Nc1ccc(Cl)cc1`, the mutagenic call is “inactive; negative” under setting [3]; “inactive; negative” (Test System: AMES SALMONELLA TYPHIMURIUM, Strain/Indicator: TA98, Metabolic Activation: RAT, LIVER, S-9, AROCLOR 1254, Method: STANDARD PLATE); “inactive; negative” under setting [4]; “inactive; negative” (Test System: AMES SALMONELLA TYPHIMURIUM, Strain/Indicator: TA100, Metabolic Activation: RAT, LIVER, S-9, AROCLOR 1254, Method: STANDARD PLATE).
